For data set [1], the system named is Candida albicans. Kind of data set: Antibiofilm activity against fluconazole-resistant Candida albicans CPCC400616 assessed as inhibition of metabolic activity of biofilm measured after 6 hrs by XTT reduction assay. The class given is functional.
The subject of data set [2] is Candida albicans. Kind of data set: Antibiofilm activity against fluconazole-resistant Candida albicans CPCC400616 assessed as inhibition of metabolic activity of biofilm measured after 24 hrs by XTT reduction assay. The class given is functional. (Tetrazolium assays rely on reduction of a dye to a coloured formazan, in cell work by metabolically active cells.)
In data set [3] the test system is Candida albicans. Kind of data set: Antifungal activity against fluconazole and iodiconazole resistant Candida albicans clinical isolate 17# assessed as inhibition of fungal growth by CLSI M27-A3 guidelines based method. The class given is functional.
In another data set the test system is Candida parapsilosis. Kind of data set: Antifungal activity against Candida parapsilosis GIM 2.190 assessed as inhibition of fungal growth by CLSI M27-A3 guidelines based method. It is filed as functional. The note with it: Lodderomyces parapsilosis.
The nature of data set [4]: Cytotoxicity against HEK293T cells assessed as inhibition of cell growth incubated for 72 hrs by MTT assay. The class given is toxicity, cell-based, HEK-293T. Conditions: human.
The test system of data set [5] is Candida albicans. Nature of the data set: Antifungal activity against Candida albicans GIM 2.194 assessed as inhibition of fungal growth by CLSI M27-A3 guidelines based method. The class given is functional.
Data set [6] has as its system Candida albicans. Nature of the data set: Effect on sterol composition in Candida albicans SC5314 assessed as other sterols content at 4 microg/ml measured after 16 hrs by GC-MS analysis (reference value: 1.06 %). The class given is functional. The note with it: dose 4 µg/ml.
Data set [7] is described as follows: Cytotoxicity against HUVEC cells assessed as inhibition of cell growth incubated for 72 hrs by MTT assay. It is filed as toxicity, cell-based. Conditions: human.
Another data set concerns Candida tropicalis. Kind of data set: Antifungal activity against Candida tropicalis GIM 2.183 assessed as inhibition of fungal growth by CLSI M27-A3 guidelines based method. It is filed as functional.
Data set [8] is described as follows: Cytotoxicity against human NCI-H460 cells assessed as inhibition of cell growth incubated for 72 hrs by MTT assay. The class given is toxicity, cell-based.
In data set [9] the test system is Candida albicans. Nature of the data set: Effect on sterol composition in Candida albicans SC5314 assessed as obtusifoliol content at 4 microg/ml measured after 16 hrs by GC-MS analysis relative to control. It is filed as functional. Conditions: dose 4 µg/ml.
Data set [10] relates to Candida albicans. Nature of the data set: Fungicidal activity fluconazole and iodiconazole resistant Candida albicans clinical isolate 17# assessed as decrease in number of fungi at 16 microg/ml measured within 24 hrs by time-kill kinetics assay. The class given is functional, organism-based. The note with it: dose 16.0 µg/ml.
Data set [11] relates to Candida albicans. Nature of the data set: Antifungal activity against fluconazole-resistant Candida albicans clinical isolate 904 assessed as inhibition of fungal growth by CLSI M27-A3 guidelines based method. It is filed as functional.
Data set [12] concerns Candida albicans. Nature of the data set: Effect on sterol composition in Candida albicans SC5314 assessed as ergosterol content at 4 microg/ml measured after 16 hrs by GC-MS analysis (reference value: 96.96 %). It is filed as functional. The note with it: dose 4 µg/ml.
Data set [13] deals with Candida albicans. Nature of the data set: Antifungal activity against Candida albicans SC5314 assessed as inhibition of fungal growth by CLSI M27-A3 guidelines based method. The class given is functional.
Data set [14] deals with Candida albicans. Kind of data set: Effect on sterol composition in Candida albicans SC5314 assessed as lanosterol content at 4 microg/ml measured after 16 hrs by GC-MS analysis relative to control. The note with it: dose 4 µg/ml. It is filed as functional.
The test system of data set [15] is Candida albicans. Nature of the data set: Fungicidal activity against fluconazole and iodiconazole resistant Candida albicans clinical isolate 17# incubated for 48 hrs by PDA plate based method. The class given is functional.
A short description of data set [16]: Cytotoxicity against human OVCAR-3 cells assessed as inhibition of cell growth incubated for 72 hrs by MTT assay. It is filed as toxicity, cell-based.
In another data set the test system is Pichia kudriavzevii. Kind of data set: Antifungal activity against Candida krusei GIM 2.1 assessed as inhibition of fungal growth by CLSI M27-A3 guidelines based method. It is filed as functional.
Data set [17] deals with Candida albicans. Nature of the data set: Antifungal activity against fluconazole-resistant Candida albicans clinical isolate 311 assessed as inhibition of fungal growth by CLSI M27-A3 guidelines based method. It is filed as functional.
Data set [18] relates to Candida albicans. Nature of the data set: Antifungal activity against fluconazole-resistant Candida albicans clinical isolate 901 assessed as inhibition of fungal growth by CLSI M27-A3 guidelines based method. The class given is functional.
The subject of another data set is Aspergillus fumigatus. Kind of data set: Antifungal activity against Aspergillus fumigatus cgmcc 3.7795 assessed as inhibition of fungal growth by CLSI M27-A3 guidelines based method. The class given is functional.
In data set [19] the test system is Candida albicans. Kind of data set: Antifungal activity against fluconazole-resistant Candida albicans clinical isolate 632 assessed as inhibition of fungal growth by CLSI M27-A3 guidelines based method. It is filed as functional.
In data set [20] the test system is Candida albicans. Kind of data set: Antifungal activity against fluconazole-resistant Candida albicans clinical isolate 100 assessed as inhibition of fungal growth by CLSI M27-A3 guidelines based method. It is filed as functional.
The subject of data set [21] is Candida albicans. Kind of data set: Inhibition of hyphal formation in fluconazole-resistant Candida albicans CPCC400616 assessed as reduction in invasive ability at 2 microg/ml measured after 4 hrs by inverted microscopic analysis. It is filed as functional, organism-based. The note with it: dose 2.0 µg/ml.
Data set [22] concerns Candida albicans. Nature of the data set: Antifungal activity against fluconazole-resistant Candida albicans CaR assessed as inhibition of fungal growth by CLSI M27-A3 guidelines based method. The class given is functional.
Another data set has as its system Nakaseomyces glabratus. Kind of data set: Antifungal activity against Candida glabrata assessed as inhibition of fungal growth by CLSI M27-A3 guidelines based method. It is filed as functional.
Data set [23] concerns Candida albicans. Kind of data set: Fungicidal activity against Candida albicans SC5314 incubated for 48 hrs by PDA plate based method. It is filed as functional.
A further data set concerns Cryptococcus neoformans. Kind of data set: Antifungal activity against Cryptococcus neoformans CGMCC 2.3161 assessed as inhibition of fungal growth by CLSI M27-A3 guidelines based method. The class given is functional.
In data set [24] the test system is Candida albicans. Kind of data set: Effect on sterol composition in Candida albicans SC5314 assessed as 14alpha-demethyllanosterol content at 4 microg/ml measured after 16 hrs by GC-MS analysis (reference value: 1.98 %). Conditions: dose 4 µg/ml. It is filed as functional.
For data set [25], the system named is Candida albicans. Kind of data set: Antifungal activity against fluconazole-resistant Candida albicans clinical isolate 103 assessed as inhibition of fungal growth by CLSI M27-A3 guidelines based method. The class given is functional.
The subject of data set [26] is Candida albicans. Kind of data set: Effect on sterol composition in Candida albicans SC5314 assessed as eburicol content at 4 microg/ml measured after 16 hrs by GC-MS analysis relative to control. It is filed as functional. Conditions: dose 4 µg/ml.
Data set [27] in a line: Metabolic stability in human liver microsomes assessed as parent compound remaining preincubated for 10 mins followed by NADPH addition and measured after 60 mins by LC-MS/MS analysis. The class given is ADME, Microsome. The note with it: time 70 min, read-out: Stability. Background: Microsomes from liver hold many membrane-bound enzymes, among them those of drug oxidation.

The test system of data set [28] is Candida albicans. Nature of the data set: Fungicidal activity fluconazole and iodiconazole resistant Candida albicans clinical isolate 17# assessed as decrease in number of fungi at 8 times of MIC measured within 24 hrs by time-kill kinetics assay. It is filed as functional, organism-based.
Data set [29] deals with Candida albicans. Kind of data set: Selectivity ratio of MFC for fungicidal activity against Candida albicans SC5314 to MIC80 for antifungal activity against Candida albicans SC5314. The class given is functional.
Data set [30] can be described thus: Metabolic stability in human liver microsomes assessed as half-life preincubated for 10 mins followed by NADPH addition and measured after 60 mins by LC-MS/MS analysis. It is filed as ADME, Microsome. Conditions: time 70 min.

Converted amounts (≈) assume the structure as drawn. The source made the active and inactive calls. Bounds are passed on as bounds.

Broadly, the MIC80 is an inhibitory concentration at the 80% level, which refers to growth in some studies and to a panel of isolates in others. What is called IC50 is the concentration that inhibits the measured activity by half. The MFC is the smallest concentration meeting the test's criterion for killing the fungus. Higher therefore signals less potent killing. In the case of `OC(Cn1cncn1)(Cn1cncn1)c1ccc(F)cc1F` [FLUCONAZOLE], the figures for the MIC50 in the data set with Candida albicans [1] and in the data set with Candida albicans [2] were 16 mg/L (≈ 52.2 µM) and above 32 mg/L, respectively. Moreover, the MIC80 was above 64 mg/L in the data set with Candida albicans [3]; 1 mg/L (≈ 3.27 µM) with Candida parapsilosis; 0.5 mg/L (≈ 1.63 µM) with Candida albicans [5]; 0.25 mg/L (≈ 0.816 µM) in the data set with Candida tropicalis; above 64 mg/L in the data set with Candida albicans [11]; 0.25 mg/L (≈ 0.816 µM) with Candida albicans [13]. Further, the MIC80 with Pichia kudriavzevii was 8 mg/L (≈ 26.1 µM); with Candida albicans [17], above 64 mg/L; with Candida albicans [18] it was above 64 mg/L; in the data set on Aspergillus fumigatus, 64 mg/L (≈ 209 µM); in the data set with Candida albicans [19], above 64 mg/L; in the data set on Candida albicans [20], above 64 mg/L. Also, the MIC80 in the data set on Candida albicans [22] was above 64 mg/L; in the data set with Nakaseomyces glabratus, 8 mg/L (≈ 26.1 µM); in the data set with Cryptococcus neoformans, 4 mg/L (≈ 13.1 µM); in the data set on Candida albicans [25], above 64 mg/L. Also, the IC50 at 72 h in data set [4], in [7], in data set [8] and in data set [16] was above 40 µM each time. The Activity is listed as 8.64% with Candida albicans [6]; 14.37% with Candida albicans [9]; 4.57% in the data set with Candida albicans [12]; 9.3% in the data set on Candida albicans [14]; 3.03% in the data set with Candida albicans [24]; 60.09% with Candida albicans [26]. The outcome with Candida albicans [10] was inactive. In addition, the MFC against Candida albicans [15] and in the data set on Candida albicans [23] was above 64 mg/L each time. For the same compound, in the data set on Candida albicans [21], the inhibition result is “inactive”.

What is called half-life is the time in which the quantity being followed falls by half. As for `CN(Cc1ccc(I)cc1)CC(O)(Cn1cncn1)c1ccc(F)cc1F` (centres undefined), the values for the MIC50 with Candida albicans [1] and with Candida albicans [2] were 8 mg/L (≈ 16.5 µM) and 16 mg/L (≈ 33 µM), respectively. Also, the MIC80 came out at 0.25 mg/L (≈ 0.516 µM) with Candida albicans [3]; 0.025 mg/L (≈ 0.0516 µM) in the data set with Candida parapsilosis; 0.025 mg/L (≈ 0.0516 µM) with Candida albicans [5]; 0.013 mg/L (≈ 0.0268 µM) in the data set on Candida tropicalis; 8 mg/L (≈ 16.5 µM) with Candida albicans [11]; 0.013 mg/L (≈ 0.0268 µM) in the data set with Candida albicans [13]. In addition, the MIC80 was 0.2 mg/L (≈ 0.413 µM) in the data set on Pichia kudriavzevii; above 64 mg/L in the data set with Candida albicans [17]; above 64 mg/L in the data set on Candida albicans [18]; 0.25 mg/L (≈ 0.516 µM) in the data set on Aspergillus fumigatus; 16 mg/L (≈ 33 µM) in the data set with Candida albicans [19]; 2 mg/L (≈ 4.13 µM) with Candida albicans [20]. In addition, the MIC80 in the data set with Candida albicans [22] is 2 mg/L (≈ 4.13 µM); in the data set on Nakaseomyces glabratus, 0.2 mg/L (≈ 0.413 µM); in the data set on Cryptococcus neoformans, 0.1 mg/L (≈ 0.206 µM); in the data set on Candida albicans [25], 32 mg/L (≈ 66.1 µM). In addition, the IC50 at 72 h in data set [4], in data set [7], in [8] and in [16] was above 10 µM in each case. In addition, the MFC against Candida albicans [15] and with Candida albicans [23] was 32 mg/L (≈ 66.1 µM) in each case. Moreover, the remaining at 1 h in [27] came out at 13.1%. Moreover, in the data set with Candida albicans [28], the result was inactive. For the same compound, in the data set on Candida albicans [29], the Selectivity ratio is recorded as above 256. Further, in data set [30], the half-life was determined as 20.4 min.

For the compound `CN(Cc1ccc(C#Cc2ccc(F)cc2F)cc1)CC(O)(Cn1cncn1)c1ccc(F)cc1F` (centres undefined), the MIC80 in the data set on Candida parapsilosis was determined as 0.006 mg/L (≈ 0.0121 µM); with Candida albicans [5], 0.006 mg/L (≈ 0.0121 µM); with Candida tropicalis, 0.006 mg/L (≈ 0.0121 µM); in the data set on Candida albicans [13], 0.006 mg/L (≈ 0.0121 µM); with Pichia kudriavzevii, 0.01 mg/L (≈ 0.0202 µM); in the data set with Nakaseomyces glabratus, 0.01 mg/L (≈ 0.0202 µM). Further, the MIC80 in the data set on Cryptococcus neoformans was determined as 0.013 mg/L (≈ 0.0263 µM). In data set [27], the remaining at 1 h came out at 20.9%. Also, the half-life in data set [30] worked out at 26.3 min.

(Values after ChEMBL document CHEMBL6092180 (Eur J Med Chem, 2024).)
